These results are taken from publication PMC9518288, “The mechanism and pharmacodynamics of 2-((1H-indol-3-yl)thio/sulfinyl)-N-pheny acetamide derivative as a novel inhibitor against human respiratory syncytial virus” (Journal of Enzyme Inhibition and Medicinal Chemistry, 2022).

Test [1] has as its system RSV minigenome (pBR322B-RSV-Gluc) in BHK-T7 cells. The test is described as follows: RSV minigenome assay (Gluc expression). Type of test: cell-based, Human respiratory syncytial virus. Conditions: BHK-T7, 24 h, vs DMSO. On the procedure:
BHK-T7 cells were seeded into 24 well plates at a density of 2 × 10^4 cells/well and incubated for 24 h. Then the RSV minigenome plasmid encoding […] (pBR322B-RSV-Gluc) was mixed with the helper plasmids (pCITE-N, pCITE-P, pCITE-L and pCITE-M2-1) in an Eppendorf tube containing 250 μL Opti-MEM. Meanwhile, the transfection reagent of Lipofectamine 2000 (Invitrogen, CA, USA) was diluted in another tube containing 250 μL Opti-MEM and incubated 5 min at room temperature. Then, the plasmids were mixed with the transfection reagent and incubated at room temperature for 30 min. After that, the BHK-T7 culture media were replaced with the DNA-lipo-optiMEM mixture and incubated for 4 ∼ 6 h (37 °C, 5% CO2). Then the DNA-lipo-optiMEM mixture was replaced with media containing the compounds (4–49 C at 1 mM and 1-HB-63 at 200 μM) and further incubated for 24 h (37 °C, 5% CO2). Finally, after the supernatant of the BHK-T7 cells was transferred into 96 well plate, the Gluc activity was determined by using LUMI star (BMG ABTECH, Ortenberg, Germany) following the manufacturer’s instructions after adding the chromogenic substrate of Gaussia Luciferase Flex Assay Kit (NEB, Ipswich, USA). The results were recorded by photography and/or evaluated with OPTIMA software (BMG LABTECH). The resultant signal strength was quantified as relative light unit (RLU).
(§1) Figure 2. Investigation on the underlying mechanism 4–49 C and 1-HB-63 inhibiting wtRSV replication. (A) Time-of-addition analyses of 4-49C and 1-HB-63 replication. The HEp-2 cells were infected with wtRSV at a multiplication of infection (MOI) of 5 for 2 h (37 °C, 5% CO2). The cells were washed with PBS and the media containing drug (4-49C, 1-HB-63, RSV-604, GS-5806 and Ribavirin at 1 mM, 200 μM, 10 μM, 1 mM and 100 μM, respectively.) were added at −1, 0, 2, 4, 6, 8, 10, 12 and 14 h separately and incubated till 24 h post infection. Then, the cells were harvested and lysed for RNA extraction and RT-qPCR assay. The results were a representative of three independent experiments, and shown as means ± standard and expressed as % negative control, although in many cases the bars for the standard deviation were obscured by the symbols given the small margin of values. (B) RSV adsorption analyses. After HEp-2 cells seeded into 24 well plates for 24 h, the cold media containing RSV (5 MOI) and compounds of 4–49C, 1-HB-63 and P13 at 1 mM, 200 μM and 100 μM, respectively, was added and incubated for 1 h at 4 °C. Then, the total RNA was isolated and RT-qPCR was performed. (C) RSV minigenome assay. After 24 h, we cotransfected RSV minigenome plasmid of pBR322B-RSV-Gluc with four auxiliary plasmids into BHK/T7 cells and detected the expression of Gluc in the supernatant. […]

Test [2] has as its system RSV-Luc. Description: In vivo mouse imaging, intraperitoneal injection. The following applies: i.p. 10, 30, 90 mg/kg once a day, days 1-5; except 4–49 C 10 and 90 mg/kg groups on the second day. Also on record: species or system BALB/c mice. The procedure: Female BALB/c mice of 6-8 weeks were purchased from Charles River Laboratories, Beijing, China and randomly divided into different groups with six mice in each group. All animal experiments were performed in compliance with protocols approved by the Institutional Animal Care and Use Committees of Tsinghua University (No. 17-DZJ1). The compounds (DMSO and ribavirin of 90 mg/kg was used as negative and positive control, respectively) with three different dose groups of 10, 30 and 90 mg/kg were administered to mice by intraperitoneal (i.p.) injection or oral route (anaesthesia with 2% halothane) at zero day and 1 h prior to the mice infected with 50 μL RSV-Luc (1 × 10^6 PFU), and then once a day for 5 consecutive days post RSV-Luc infection. For the in vivo mouse imaging, 50 μL PBS containing D-Luciferin Potassium Salt (75 mg/kg) was administered to BALB/c mice via nasal drip at days 1, 2, 3, 4 and 5 since RSV-Luc infection, and 5 min later, the whole-body images of BALB/c mice were acquired using an IVIS Lumina II in vivo imaging system (PE, Waltham, MA, USA). And the signal intensity was quantified as the total flux (photons/seconds) using Living Image software (PE).
Female BALB/c mice of 6–8 weeks were randomly divided into different groups with 6 mice in each group. […]

Test [3] concerns RSV adsorption to HEp-2 cells. The test is described as follows: RSV adsorption analyses (RT-qPCR). It is filed as cell-based, Human respiratory syncytial virus. The following applies: RSV 5 MOI, 1 h at 4 °C. The procedure:
as §1

SMILES strings stand for the structures.

For `O=C(C[S+]([O-])c1c[nH]c2ccccc12)Nc1ccccc1Br` (stereo not drawn) [1-HB-63], the “inhibition of expression of Gluc gene” value in test [1] (1-HB-63 at 200 μM) was “sharply contrast”. Further, in test [2], the “fluorescence signals (RSV-Luc replication in lungs) compared with DMSO-treated group” value is given as “did not display significant differences”. Moreover, the “inhibition of RSV replication by preventing virus adsorption” value in test [3] (1-HB-63 at 200 μM) is “neither of 4-49 C and 1-HB-63 inhibited RSV replication by preventing virus adsorption”.
For `CCOc1ccccc1NC(=O)CSc1c[nH]c2ccc(OC)cc12` [4–49 C], the “inhibition of expression of Gluc gene” value in test [1] (4–49 C at 1 mM) was “could not be inhibited”. The “fluorescence signals (RSV-Luc replication in lungs) compared with DMSO-treated group” value in test [2] is “did not display significant differences”. Moreover, in test [3] (4-49C at 1 mM), the “inhibition of RSV replication by preventing virus adsorption” value was “neither of 4-49 C and 1-HB-63 inhibited RSV replication by preventing virus adsorption”.
